Columns and labels:
Assay in all cases: SelectScreen LanthaScreen Binding
Details in all cases: INX-0315 at 100nM
[1] = molecular target: T1, MAP2K6 (MKK6) (Homo sapiens, UniProt P52564)
T1 construct: purchased Thermo Fisher Scientific SelectScreen (plus Nanosyn / Reaction Biology for CDK/cyclin lines)
Outline: (§1)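 The compound is dosed at 100 nmol/L in 1% DMSO for the initial pass. Dose–response work then covers ten points between 1 µmol/L and 0.0495 nmol/L, with assay conditions as predefined by the service.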

[2] = molecular target: T2, TAOK3 (JIK) (Homo sapiens, UniProt Q9H2K8)
T2 construct: purchased Thermo Fisher Scientific SelectScreen (plus Nanosyn / Reaction Biology for CDK/cyclin lines)
Outline: as §1

[3] = molecular target: T3, ULK3 (Homo sapiens, UniProt Q6PHR2)
T3 construct: purchased Thermo Fisher Scientific SelectScreen (plus Nanosyn / Reaction Biology for CDK/cyclin lines)
Outline: as §1

[4] = molecular target: T4, TEK (TIE2) Y1108F (Homo sapiens, UniProt Q02763, Y1108F)
T4 construct: purchased Thermo Fisher Scientific SelectScreen (plus Nanosyn / Reaction Biology for CDK/cyclin lines)
Outline: as §1

[5] = molecular target: T5, MAP3K10 (MLK2) (Homo sapiens, UniProt Q02779)
T5 construct: purchased Thermo Fisher Scientific SelectScreen (plus Nanosyn / Reaction Biology for CDK/cyclin lines)
Outline: as §1

[6] = molecular target: T6, ERN1 (Homo sapiens, UniProt O75460)
T6 construct: purchased Thermo Fisher Scientific SelectScreen (plus Nanosyn / Reaction Biology for CDK/cyclin lines)
Outline: as §1

[7] = molecular target: T7, AMPK (A2/B2/G1) (Homo sapiens, UniProt P54646)
T7 construct: purchased Thermo Fisher Scientific SelectScreen (plus Nanosyn / Reaction Biology for CDK/cyclin lines)
Outline: as §1

[8] = molecular target: T8, RAF1 (cRAF) Y340D Y341D (Homo sapiens, UniProt P04049, Y340D/Y341D)
T8 construct: purchased Thermo Fisher Scientific SelectScreen (plus Nanosyn / Reaction Biology for CDK/cyclin lines)
Outline: as §1

[9] = molecular target: T9, TLK2 (Homo sapiens, UniProt Q86UE8)
T9 construct: purchased Thermo Fisher Scientific SelectScreen (plus Nanosyn / Reaction Biology for CDK/cyclin lines)
Outline: as §1

[10] = molecular target: T10, ABL1 Q252H (Homo sapiens, UniProt P00519, Q252H)
T10 construct: purchased Thermo Fisher Scientific SelectScreen (plus Nanosyn / Reaction Biology for CDK/cyclin lines)
Outline: as §1

[11] = molecular target: T11, CDK5 (Inactive) (Homo sapiens, UniProt Q00535)
T11 construct: purchased Thermo Fisher Scientific SelectScreen (plus Nanosyn / Reaction Biology for CDK/cyclin lines)
Outline: as §1

[12] = molecular target: T12, MAP4K3 (GLK) (Homo sapiens, UniProt Q8IVH8)
T12 construct: purchased Thermo Fisher Scientific SelectScreen (plus Nanosyn / Reaction Biology for CDK/cyclin lines)
Outline: as §1

[13] = molecular target: T13, ACVR1 (ALK2) (Homo sapiens, UniProt Q04771)
T13 construct: purchased Thermo Fisher Scientific SelectScreen (plus Nanosyn / Reaction Biology for CDK/cyclin lines)
Outline: as §1

[14] = molecular target: T14, KIT V654A (Homo sapiens, UniProt P10721, V654A)
T14 construct: purchased Thermo Fisher Scientific SelectScreen (plus Nanosyn / Reaction Biology for CDK/cyclin lines)
Outline: as §1

[15] = molecular target: T15, WNK1 (Homo sapiens, UniProt Q9H4A3)
T15 construct: purchased Thermo Fisher Scientific SelectScreen (plus Nanosyn / Reaction Biology for CDK/cyclin lines)
Outline: as §1

[16] = molecular target: T16, LATS2 (Homo sapiens, UniProt Q9NRM7)
T16 construct: purchased Thermo Fisher Scientific SelectScreen (plus Nanosyn / Reaction Biology for CDK/cyclin lines)
Outline: as §1

[17] = molecular target: T17, MAPK15 (ERK7) (Homo sapiens, UniProt Q8TD08)
T17 construct: purchased Thermo Fisher Scientific SelectScreen (plus Nanosyn / Reaction Biology for CDK/cyclin lines)
Outline: as §1

[18] = molecular target: T18, CAMKK1 (CAMKKA) (Homo sapiens, UniProt Q8N5S9)
T18 construct: purchased Thermo Fisher Scientific SelectScreen (plus Nanosyn / Reaction Biology for CDK/cyclin lines)
Outline: as §1

[19] = molecular target: T19, MAP3K3 (MEKK3) (Homo sapiens, UniProt Q99759)
T19 construct: purchased Thermo Fisher Scientific SelectScreen (plus Nanosyn / Reaction Biology for CDK/cyclin lines)
Outline: as §1

[20] = molecular target: T20, MET D1228H (Homo sapiens, UniProt P08581, D1228H)
T20 construct: purchased Thermo Fisher Scientific SelectScreen (plus Nanosyn / Reaction Biology for CDK/cyclin lines)
Outline: as §1

[21] = molecular target: T21, EPHA7 (Homo sapiens, UniProt Q15375)
T21 construct: purchased Thermo Fisher Scientific SelectScreen (plus Nanosyn / Reaction Biology for CDK/cyclin lines)
Outline: as §1

[22] = molecular target: T22, GAK (Homo sapiens, UniProt O14976)
T22 construct: purchased Thermo Fisher Scientific SelectScreen (plus Nanosyn / Reaction Biology for CDK/cyclin lines)
Outline: as §1

[23] = molecular target: T23, MAP4K1 (HPK1) (Homo sapiens, UniProt Q92918)
T23 construct: purchased Thermo Fisher Scientific SelectScreen (plus Nanosyn / Reaction Biology for CDK/cyclin lines)
Outline: as §1

[24] = molecular target: T24, STK16 (PKL12) (Homo sapiens, UniProt O75716)
T24 construct: purchased Thermo Fisher Scientific SelectScreen (plus Nanosyn / Reaction Biology for CDK/cyclin lines)
Outline: as §1

[25] = molecular target: T25, FGFR3 G697C (Homo sapiens, UniProt P22607, G697C)
T25 construct: purchased Thermo Fisher Scientific SelectScreen (plus Nanosyn / Reaction Biology for CDK/cyclin lines)
Outline: as §1

[26] = molecular target: T26, BMPR1B (ALK6) (Homo sapiens, UniProt O00238)
T26 construct: purchased Thermo Fisher Scientific SelectScreen (plus Nanosyn / Reaction Biology for CDK/cyclin lines)
Outline: as §1

[27] = molecular target: T27, DYRK2 (Homo sapiens, UniProt Q92630)
T27 construct: purchased Thermo Fisher Scientific SelectScreen (plus Nanosyn / Reaction Biology for CDK/cyclin lines)
Outline: as §1

[28] = molecular target: T28, PLK4 (Homo sapiens, UniProt O00444)
T28 construct: purchased Thermo Fisher Scientific SelectScreen (plus Nanosyn / Reaction Biology for CDK/cyclin lines)
Outline: as §1

[29] = molecular target: T29, PKN2 (PRK2) (Homo sapiens, UniProt Q16513)
T29 construct: purchased Thermo Fisher Scientific SelectScreen (plus Nanosyn / Reaction Biology for CDK/cyclin lines)
Outline: as §1

[30] = molecular target: T30, KIT D816H (Homo sapiens, UniProt P10721, D816H)
T30 construct: purchased Thermo Fisher Scientific SelectScreen (plus Nanosyn / Reaction Biology for CDK/cyclin lines)
Outline: as §1

[31] = molecular target: T31, TESK1 (Homo sapiens, UniProt Q15569)
T31 construct: purchased Thermo Fisher Scientific SelectScreen (plus Nanosyn / Reaction Biology for CDK/cyclin lines)
Outline: as §1

[32] = molecular target: T32, EIF2AK2 (PKR) (Homo sapiens, UniProt P19525)
T32 construct: purchased Thermo Fisher Scientific SelectScreen (plus Nanosyn / Reaction Biology for CDK/cyclin lines)
Outline: as §1

[33] = molecular target: T33, MYO3B (MYO3 beta) (Homo sapiens, UniProt Q8WXR4)
T33 construct: purchased Thermo Fisher Scientific SelectScreen (plus Nanosyn / Reaction Biology for CDK/cyclin lines)
Outline: as §1

[34] = molecular target: T34, RIPK3 (Homo sapiens, UniProt Q9Y572)
T34 construct: purchased Thermo Fisher Scientific SelectScreen (plus Nanosyn / Reaction Biology for CDK/cyclin lines)
Outline: as §1

[35] = molecular target: T35, BMPR1A (ALK3) (Homo sapiens, UniProt P36894)
T35 construct: purchased Thermo Fisher Scientific SelectScreen (plus Nanosyn / Reaction Biology for CDK/cyclin lines)
Outline: as §1

[36] = molecular target: T36, TNK2 (ACK) (Homo sapiens, UniProt Q07912)
T36 construct: purchased Thermo Fisher Scientific SelectScreen (plus Nanosyn / Reaction Biology for CDK/cyclin lines)
Outline: as §1

[37] = molecular target: T37, TAOK1 (Homo sapiens, UniProt Q7L7X3)
T37 construct: purchased Thermo Fisher Scientific SelectScreen (plus Nanosyn / Reaction Biology for CDK/cyclin lines)
Outline: as §1

[38] = molecular target: T38, RIPK2 (Homo sapiens, UniProt O43353)
T38 construct: purchased Thermo Fisher Scientific SelectScreen (plus Nanosyn / Reaction Biology for CDK/cyclin lines)
Outline: as §1

T26 sequence (O00238 14-502): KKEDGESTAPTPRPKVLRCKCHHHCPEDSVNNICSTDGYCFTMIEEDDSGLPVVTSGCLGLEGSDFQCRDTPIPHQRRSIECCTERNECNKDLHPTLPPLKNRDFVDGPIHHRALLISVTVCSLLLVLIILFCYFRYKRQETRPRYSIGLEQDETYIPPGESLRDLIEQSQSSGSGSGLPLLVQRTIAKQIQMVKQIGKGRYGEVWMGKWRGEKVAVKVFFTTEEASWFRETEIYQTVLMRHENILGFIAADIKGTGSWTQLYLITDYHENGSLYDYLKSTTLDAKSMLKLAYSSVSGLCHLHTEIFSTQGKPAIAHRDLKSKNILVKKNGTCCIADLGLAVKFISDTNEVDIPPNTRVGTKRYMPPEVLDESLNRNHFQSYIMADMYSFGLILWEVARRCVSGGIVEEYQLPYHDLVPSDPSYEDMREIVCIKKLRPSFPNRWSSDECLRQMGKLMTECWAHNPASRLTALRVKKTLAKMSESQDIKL
T29 sequence (Q16513 whole entry): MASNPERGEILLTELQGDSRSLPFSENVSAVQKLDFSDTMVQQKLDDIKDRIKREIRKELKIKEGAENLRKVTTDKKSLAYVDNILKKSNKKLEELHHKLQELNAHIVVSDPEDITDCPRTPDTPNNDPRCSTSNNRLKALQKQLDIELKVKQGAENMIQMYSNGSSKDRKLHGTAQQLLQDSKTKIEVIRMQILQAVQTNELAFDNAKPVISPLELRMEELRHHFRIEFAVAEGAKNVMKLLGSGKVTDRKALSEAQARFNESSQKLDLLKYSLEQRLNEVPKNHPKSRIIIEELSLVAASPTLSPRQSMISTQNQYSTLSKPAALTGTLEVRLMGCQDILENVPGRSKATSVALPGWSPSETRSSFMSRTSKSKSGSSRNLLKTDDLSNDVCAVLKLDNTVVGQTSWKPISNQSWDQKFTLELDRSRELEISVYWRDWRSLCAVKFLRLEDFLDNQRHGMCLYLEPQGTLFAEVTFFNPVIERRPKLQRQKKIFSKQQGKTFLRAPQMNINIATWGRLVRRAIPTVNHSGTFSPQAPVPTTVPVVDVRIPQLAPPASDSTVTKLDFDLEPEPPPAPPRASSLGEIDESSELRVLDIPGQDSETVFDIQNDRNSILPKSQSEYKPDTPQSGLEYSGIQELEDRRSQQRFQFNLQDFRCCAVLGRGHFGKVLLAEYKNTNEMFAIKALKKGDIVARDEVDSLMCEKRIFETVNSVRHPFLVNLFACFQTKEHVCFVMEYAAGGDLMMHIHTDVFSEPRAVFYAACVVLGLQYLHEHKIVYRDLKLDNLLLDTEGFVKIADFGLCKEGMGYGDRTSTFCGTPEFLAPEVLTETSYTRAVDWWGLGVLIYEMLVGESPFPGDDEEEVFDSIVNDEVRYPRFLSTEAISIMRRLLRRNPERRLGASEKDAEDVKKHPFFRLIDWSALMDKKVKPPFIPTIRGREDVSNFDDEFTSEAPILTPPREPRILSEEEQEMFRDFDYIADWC
T6 sequence (O75460 19-977): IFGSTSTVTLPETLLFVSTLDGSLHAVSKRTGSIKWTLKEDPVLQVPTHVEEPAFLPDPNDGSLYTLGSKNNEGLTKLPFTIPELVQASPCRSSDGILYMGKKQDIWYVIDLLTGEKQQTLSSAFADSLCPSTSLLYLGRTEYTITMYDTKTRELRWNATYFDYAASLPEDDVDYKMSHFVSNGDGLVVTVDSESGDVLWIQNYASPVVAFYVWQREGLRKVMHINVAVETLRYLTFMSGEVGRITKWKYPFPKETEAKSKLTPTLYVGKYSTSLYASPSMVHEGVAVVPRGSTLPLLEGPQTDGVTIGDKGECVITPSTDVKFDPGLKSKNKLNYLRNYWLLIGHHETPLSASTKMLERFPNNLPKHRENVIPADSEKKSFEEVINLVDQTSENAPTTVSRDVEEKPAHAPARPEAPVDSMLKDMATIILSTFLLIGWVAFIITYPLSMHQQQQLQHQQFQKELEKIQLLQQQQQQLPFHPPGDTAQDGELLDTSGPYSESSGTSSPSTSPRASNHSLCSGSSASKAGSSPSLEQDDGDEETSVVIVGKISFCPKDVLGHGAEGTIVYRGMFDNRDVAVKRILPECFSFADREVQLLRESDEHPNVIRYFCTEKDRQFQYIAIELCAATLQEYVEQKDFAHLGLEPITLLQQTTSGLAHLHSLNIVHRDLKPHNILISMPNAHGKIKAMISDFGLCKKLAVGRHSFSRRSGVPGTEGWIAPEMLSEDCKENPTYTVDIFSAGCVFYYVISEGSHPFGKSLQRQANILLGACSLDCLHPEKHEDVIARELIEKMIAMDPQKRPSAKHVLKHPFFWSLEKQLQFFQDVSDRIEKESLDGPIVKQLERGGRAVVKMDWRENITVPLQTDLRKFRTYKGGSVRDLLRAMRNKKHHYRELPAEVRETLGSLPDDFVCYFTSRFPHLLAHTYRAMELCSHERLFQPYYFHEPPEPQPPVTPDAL
T35 sequence (P36894 24-532): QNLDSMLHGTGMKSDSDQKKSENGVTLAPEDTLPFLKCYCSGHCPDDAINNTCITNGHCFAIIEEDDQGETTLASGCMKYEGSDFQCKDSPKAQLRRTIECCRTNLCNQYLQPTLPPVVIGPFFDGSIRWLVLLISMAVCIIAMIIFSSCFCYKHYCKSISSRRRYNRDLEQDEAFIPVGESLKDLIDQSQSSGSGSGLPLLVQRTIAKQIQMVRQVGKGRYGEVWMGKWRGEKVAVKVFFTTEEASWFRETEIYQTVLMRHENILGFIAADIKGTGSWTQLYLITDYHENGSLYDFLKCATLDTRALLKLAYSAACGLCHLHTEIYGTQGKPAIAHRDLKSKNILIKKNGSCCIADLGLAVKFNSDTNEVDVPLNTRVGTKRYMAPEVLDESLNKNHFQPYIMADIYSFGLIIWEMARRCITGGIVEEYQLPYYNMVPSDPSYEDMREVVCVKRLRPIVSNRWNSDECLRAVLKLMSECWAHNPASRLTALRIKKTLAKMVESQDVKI
T14 sequence (P10721 26-976 V654A): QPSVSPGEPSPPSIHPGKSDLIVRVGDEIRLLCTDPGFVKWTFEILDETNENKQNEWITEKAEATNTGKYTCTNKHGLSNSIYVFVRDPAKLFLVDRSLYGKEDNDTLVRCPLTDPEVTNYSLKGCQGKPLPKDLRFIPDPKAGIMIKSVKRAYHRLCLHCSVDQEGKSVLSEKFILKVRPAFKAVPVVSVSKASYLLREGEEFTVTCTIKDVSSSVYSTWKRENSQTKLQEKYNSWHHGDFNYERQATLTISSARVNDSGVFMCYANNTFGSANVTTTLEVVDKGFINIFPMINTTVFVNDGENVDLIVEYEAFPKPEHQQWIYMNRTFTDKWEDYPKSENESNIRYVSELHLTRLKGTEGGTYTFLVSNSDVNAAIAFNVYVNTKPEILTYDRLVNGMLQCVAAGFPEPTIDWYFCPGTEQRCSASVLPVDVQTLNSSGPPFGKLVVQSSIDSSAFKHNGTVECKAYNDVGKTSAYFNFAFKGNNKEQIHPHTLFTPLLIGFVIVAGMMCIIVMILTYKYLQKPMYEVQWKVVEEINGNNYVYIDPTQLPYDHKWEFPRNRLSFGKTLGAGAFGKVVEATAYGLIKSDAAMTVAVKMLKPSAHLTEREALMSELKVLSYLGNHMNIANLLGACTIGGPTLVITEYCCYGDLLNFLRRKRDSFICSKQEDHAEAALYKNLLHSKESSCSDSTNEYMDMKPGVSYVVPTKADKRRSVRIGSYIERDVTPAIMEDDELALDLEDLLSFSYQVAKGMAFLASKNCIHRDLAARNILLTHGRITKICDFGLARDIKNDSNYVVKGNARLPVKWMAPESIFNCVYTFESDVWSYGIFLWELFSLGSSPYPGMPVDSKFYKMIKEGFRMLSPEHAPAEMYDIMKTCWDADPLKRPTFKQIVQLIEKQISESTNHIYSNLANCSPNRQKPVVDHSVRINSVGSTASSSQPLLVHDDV
T17 sequence (Q8TD08 whole entry): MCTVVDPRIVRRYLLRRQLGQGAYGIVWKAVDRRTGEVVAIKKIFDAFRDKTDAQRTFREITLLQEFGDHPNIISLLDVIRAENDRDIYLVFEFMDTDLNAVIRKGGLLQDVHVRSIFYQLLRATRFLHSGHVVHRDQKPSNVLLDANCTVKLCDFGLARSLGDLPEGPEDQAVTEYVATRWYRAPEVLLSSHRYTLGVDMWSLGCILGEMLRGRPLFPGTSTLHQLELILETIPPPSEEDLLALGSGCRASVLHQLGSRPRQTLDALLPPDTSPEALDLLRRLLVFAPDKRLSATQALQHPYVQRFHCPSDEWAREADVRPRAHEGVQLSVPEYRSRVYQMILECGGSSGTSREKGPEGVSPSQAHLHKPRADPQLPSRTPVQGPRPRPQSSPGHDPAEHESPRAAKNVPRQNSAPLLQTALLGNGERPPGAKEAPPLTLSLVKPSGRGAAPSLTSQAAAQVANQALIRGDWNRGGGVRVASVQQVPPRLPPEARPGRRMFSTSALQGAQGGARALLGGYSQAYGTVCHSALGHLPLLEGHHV
T27 sequence (Q92630 whole entry): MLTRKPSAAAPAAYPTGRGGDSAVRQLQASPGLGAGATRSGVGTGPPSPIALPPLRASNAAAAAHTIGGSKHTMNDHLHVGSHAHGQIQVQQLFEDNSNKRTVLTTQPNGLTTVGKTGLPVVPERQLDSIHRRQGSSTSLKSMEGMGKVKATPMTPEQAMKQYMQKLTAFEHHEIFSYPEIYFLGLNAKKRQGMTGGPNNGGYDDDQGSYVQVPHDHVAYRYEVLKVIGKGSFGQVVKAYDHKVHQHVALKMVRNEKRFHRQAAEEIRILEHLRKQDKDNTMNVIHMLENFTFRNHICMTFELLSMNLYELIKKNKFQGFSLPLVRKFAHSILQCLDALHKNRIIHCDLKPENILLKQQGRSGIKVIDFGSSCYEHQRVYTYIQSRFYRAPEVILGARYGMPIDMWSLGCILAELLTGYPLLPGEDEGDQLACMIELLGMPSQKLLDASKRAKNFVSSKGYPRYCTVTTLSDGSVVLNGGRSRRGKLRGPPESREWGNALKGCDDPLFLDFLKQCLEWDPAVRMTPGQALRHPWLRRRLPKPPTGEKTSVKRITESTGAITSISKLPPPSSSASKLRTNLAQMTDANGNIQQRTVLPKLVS

**Q.** Which inhibition at 0.1 µM [1] does the source give for NS(=O)(=O)c1ccc(Nc2ncc3cc4n(c3n2)C2(CCCCC2)C(=O)NN4)cc1 [INX-315] here?
**A.** -3%

**Q.** What about the inhibition at 0.1 µM [2] of the same molecule?
**A.** 4%

**Q.** And the inhibition at 0.1 µM [3]?
**A.** 25%

**Q.** And the inhibition at 0.1 µM [4]?
**A.** 2%

**Q.** What about the inhibition at 0.1 µM [5] of the same molecule?
**A.** 8%

**Q.** What about the inhibition at 0.1 µM [6] of the same molecule?
**A.** 11%

**Q.** What about the inhibition at 0.1 µM [7] of the same molecule?
**A.** 9%

**Q.** What about the inhibition at 0.1 µM [8] of the same molecule?
**A.** -2%

**Q.** What about the inhibition at 0.1 µM [9] of the same molecule?
**A.** 13%

**Q.** And the inhibition at 0.1 µM [10]?
**A.** 19%

**Q.** And the inhibition at 0.1 µM [11]?
**A.** 80%

**Q.** What about the inhibition at 0.1 µM [12] of the same molecule?
**A.** 8%

**Q.** What about the inhibition at 0.1 µM [13] of the same molecule?
**A.** -5%

**Q.** What about the inhibition at 0.1 µM [14] of the same molecule?
**A.** 26%

**Q.** And the inhibition at 0.1 µM [15]?
**A.** 4%

**Q.** What about the inhibition at 0.1 µM [16] of the same molecule?
**A.** 8%

**Q.** And the inhibition at 0.1 µM [17]?
**A.** 87%

**Q.** And the inhibition at 0.1 µM [18]?
**A.** 6%

**Q.** What about the inhibition at 0.1 µM [19] of the same molecule?
**A.** 18%

**Q.** And the inhibition at 0.1 µM [20]?
**A.** -6%

**Q.** What about the inhibition at 0.1 µM [21] of the same molecule?
**A.** 9%

**Q.** And the inhibition at 0.1 µM [22]?
**A.** 38%

**Q.** And the inhibition at 0.1 µM [23]?
**A.** 17%

**Q.** What about the inhibition at 0.1 µM [24] of the same molecule?
**A.** 57%

**Q.** What about the inhibition at 0.1 µM [25] of the same molecule?
**A.** 13%

**Q.** What about the inhibition at 0.1 µM [26] of the same molecule?
**A.** 1%

**Q.** What about the inhibition at 0.1 µM [27] of the same molecule?
**A.** -4%

**Q.** And the inhibition at 0.1 µM [28]?
**A.** 29%

**Q.** And the inhibition at 0.1 µM [29]?
**A.** 11%

**Q.** What about the inhibition at 0.1 µM [30] of the same molecule?
**A.** 38%

**Q.** What about the inhibition at 0.1 µM [31] of the same molecule?
**A.** 2%

**Q.** And the inhibition at 0.1 µM [32]?
**A.** -8%

**Q.** And the inhibition at 0.1 µM [33]?
**A.** 0%

**Q.** What about the inhibition at 0.1 µM [34] of the same molecule?
**A.** -9%

**Q.** And the inhibition at 0.1 µM [35]?
**A.** 8%

**Q.** And the inhibition at 0.1 µM [36]?
**A.** 0%

**Q.** What about the inhibition at 0.1 µM [37] of the same molecule?
**A.** 22%

**Q.** What about the inhibition at 0.1 µM [38] of the same molecule?
**A.** -1%
